Nine molecules from patent publication US20250026741A1, “INHIBITORS OF THE ONCOGENIC SHP2 PHOSPHATASE AND USES THEREOF” (Sanford Burnham Prebys Medical Discovery Institute, priority 2021, published 2025) can be followed below.

Assay [1] has as its target full-length SHP2-E76K oncogenic mutant (Homo sapiens (Human), UniProt Q06124, E76K). Description: DiFMUP fluorescence intensity phosphatase inhibition assay, SHP2-E76K. The format is biochemical. An excerpt: (§1) To test the synthesized compounds for their potential to inhibit SHP2 activity, a fluorescence intensity-based assay using 6,8-difluoro-4-methylumbelliferyl phosphate (DiFMUP) as the substrate was adapted for three recombinant SHP2 constructs: 1) the SHP2 catalytic domain (SHP2cat; residues 248-527), 2) the full-length SHP2-E76K oncogenic mutant, and 3) the full-length SHP2 wild-type (SHP2-WT). The recombinant SHP2 proteins were expressed and purified. A dually phosphorylated peptide derived from the insulin receptor substrate 1 (IRS-1) served as a surrogate binding protein and was used to activate SHP2-WT. […] Michaelis-Menten experiments to determine the DiFMUP Michaelis-Menten constant (Kmn) for each SHP2 construct were performed and yielded the following values: SHP2-WT, Km=60 μM; SHP2-E76K, Km=20 μM; SHP2cat, Km=20 μM. Relative maximum rates (Vmax) of the DiFMUP reactions were as follows: SHP2-WT, Vmax=871 AFU/min; SHP2-E76K, Vmax, =2730 AFU/min; SHP2cat, Vmax=2912 AFU/min. IC50 values for each compound were determined from initial rates in 10-point dose-response assays using DiFMUP at a concentration corresponding to its Km value for the respective SHP2 construct.
(§2) SHP2 inhibitors were tested at room temperature (RT) in a 384-well plate format standard phosphatase fluorescence intensity assay using DiFMUP (Invitrogen/Thermo Fisher Scientific, Carlsbad, CA) as a substrate and a total reaction volume of 25 μL. SHP2 inhibitors or vehicle (DMSO) were spotted in triplicate into a black Greiner FLUOTRAC™ 200 384-well microplate (#781076, Greiner) for a 10-point dose-response assay using an Echo®555 Liquid Handler (Labcyte, Inc., San Jose, CA). PTP working solutions were prepared at a 0.625 nM concentration (for a final concentration of 0.5 nM) in buffer containing 50 mM Bis-Tris pH 6.0, 50 mM NaCl, 5 mM DTT, and 0.01% Tween® 20. Prior to the assay, a dually phosphorylated insulin receptor substrate 1 (IRS-1) peptide [625 nM (500 nMfinal) (30)] was added to full-length WT SHP2 working solutions and incubated for 20 min. DiFMUP working solutions at 5× final concentration were prepared in 50 mM Bis-Tris pH 6.0, 50 mMNaCl, and 0.01% Tween 20. 20 μL of PTP working solution was dispensed into the microplate and incubated with inhibitor for 20 min at RT. […] The reaction was initiated by addition of 5 μL DiFMUP working solutions. Fluorescence intensity was measured in kinetic mode (every minute for 7 or 10 min) using a Tecan Spark® Multimode Microplate Reader (Tecan, Groedig, Austria) with an excitation wavelength of 360 nm and an emission wavelength of 460 nm. The initial rates were determined from the linear progression curves of the PTP reaction. The nonenzymatic hydrolysis of the substrate was corrected by using a control without addition of enzyme. IC50 values were calculated from the corrected initial rates by nonlinear regression using the program GraphPad Prism (GraphPad Software, Inc., San Diego, CA) Version 8. Dose-response inhibition assays of SHP2cat using the substrate OMFP were performed similarly as described above for DiFMUP. OMFP was used at a concentration corresponding to its Km value for SHP2cat (50 μM final). Fluorescence intensity was measured in kinetic mode (every minute for 10 min) using a Tecan Spark Multimode Microplate Reader with an excitation wavelength of 485 nm and an emission wavelength of 535 nm. Initial rates were determined and IC50 vales calculated as described above.

In assay [2] the target is full-length SHP2 wild-type (SHP2-WT) (Homo sapiens (Human), UniProt Q06124). Description: DiFMUP fluorescence intensity phosphatase inhibition assay, SHP2-WT activated with IRS-1 peptide. The format is biochemical. The settings on record: DiFMUP at Km (60 μM), IRS-1 peptide activated.
Chain of full-length SHP2 wild-type (SHP2-WT) (Q06124 whole entry, other chains not shown): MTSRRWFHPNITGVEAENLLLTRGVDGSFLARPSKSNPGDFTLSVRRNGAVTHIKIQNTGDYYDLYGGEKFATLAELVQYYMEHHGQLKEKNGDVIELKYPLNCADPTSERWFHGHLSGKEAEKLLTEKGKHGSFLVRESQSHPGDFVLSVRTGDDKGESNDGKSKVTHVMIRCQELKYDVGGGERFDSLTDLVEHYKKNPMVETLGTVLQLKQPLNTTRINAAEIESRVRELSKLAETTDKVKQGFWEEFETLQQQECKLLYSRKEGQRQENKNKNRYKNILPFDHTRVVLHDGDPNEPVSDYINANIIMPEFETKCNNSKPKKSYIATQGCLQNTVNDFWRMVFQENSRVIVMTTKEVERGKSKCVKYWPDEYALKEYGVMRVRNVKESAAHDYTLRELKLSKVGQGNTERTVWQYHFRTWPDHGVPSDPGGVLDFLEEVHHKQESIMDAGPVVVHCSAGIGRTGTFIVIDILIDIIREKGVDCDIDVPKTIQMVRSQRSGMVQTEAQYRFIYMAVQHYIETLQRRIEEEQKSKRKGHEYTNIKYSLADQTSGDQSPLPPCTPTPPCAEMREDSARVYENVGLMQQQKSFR
Text: as §1, §2

Assay [3] has as its target SHP2 catalytic domain (SHP2cat; residues 248-527) (Homo sapiens (Human), UniProt Q06124). The assay can be described thus: DiFMUP fluorescence intensity phosphatase inhibition assay, SHP2cat. Type of assay: biochemical.
Text: as §1, §2

A further assay concerns the target PTP1B catalytic domain (Homo sapiens (Human), UniProt P18031). The assay can be described thus: DiFMUP phosphatase inhibition assay, PTP1B. Type of assay: biochemical. The settings on record: catalytic domain, DiFMUP at Km (25 μM). Here is the method: (§3) Selectivity is one of the biggest challenges in PTP inhibitor development. […] Similar to SHP2, we adapted a 384-well plate format DiFMUP assay for recombinant PTP1B and STEP and performed Michaelis-Menten experiments to determine DiFMUP Km values for each phosphatase. IC50 values of our inhibitors for PTP1B and STEP were determined in 10-point dose-response assays with DiFMUP used at the concentration corresponding to the respective Km value. […] Other inhibitors with good relative selectivity for SHP2 included #02 (13-fold selective over PTP1B; 73-fold selective over STEP) and #05 (5-fold selective over PTP1B; >71-fold selective over STEP).
as §2

Assay [4] concerns the target striatal-enriched tyrosine phosphatase (STEP) catalytic domain (Homo sapiens (Human), UniProt P54829). The assay can be described thus: DiFMUP phosphatase inhibition assay, STEP. The format is biochemical. The settings on record: catalytic domain, DiFMUP at Km (4 μM). The method, then:
as §3, §2

In assay [5] the test system is Kasumi-1 acute myeloid leukemia (AML) cells. The assay can be described thus: Cell viability assay (CellTiter-Glo), Kasumi-1. The settings on record: Kasumi-1 cells, various concentrations, 3 d. Type of assay: cell-based. The text has this:
(§4) Inhibition of SHP2 has been reported to inhibit the growth of cancer cells including Kasumi-1 acute myeloid leukemia (AML) and KYSE-520 esophageal cancer cells. […] Cell viability is shown as a percentage of the vehicle (DMSO) control and represents the mean±SD. B) #02 dose-response curves in cell viability assays using Kasumi-1, KYSE-520, MOLM-13, and […] cells after 3 d in culture. The percentages compared to DMSO vehicle control were curve fitted using nonlinear regression (log[inhibitor] vs. normalized response, variable slope) and represent the mean±SD. C) Cell viability of […] and MDA-MB-468 triple-negative breast cancer (TNBC) cells in the presence of various concentrations of #02 or the SHP2 allosteric inhibitor SHP099 after 5 d in culture. Cell viability is shown as a percentage of DMSO vehicle control, representing mean±SD, and curve fitted as in B). D) Colony formation assay (11 d) of […] and MDA-MB-468 TNBC cells in the presence of various concentrations of #02 or the SHP2 allosteric inhibitor SHP099. E) Phospho-ERK1/2 (p-ERK1/2) immunoblot analysis from total cell lysates of MOLM-13 AML cells treated with #02 at the indicated concentrations, or with SHP2 allosteric inhibitor RMC-4550 (RMC, 1 μM) for 3 h or 24 h. The quantitation of p-ERK1/2 levels is shown as the percentage of the DMSO (vehicle) control and represents data from three independent experiments (mean±SD). F) Viability of AML patient-derived cells in the presence of 10 μM #02 or 10 μM SHP2 allosteric inhibitor RMC-4550 after 2 d, 4 d, or 6 d in culture. Cell viability is shown as a percentage of the DMSO vehicle control and represents the mean±SD (*p<0.05; **p<0.01; ****p<0.0001; unpaired test with Welch's correction) G) Viability of MOLM-13 cells and MOLM-13-Cas9-mCherry cells with SHP2 knockout (KO) in the presence of #01, #02, and allosteric inhibitor SHP099 at various concentrations (10-point dose-response). The percentages compared to the DMSO vehicle control were curve fitted using nonlinear regression (log[inhibitor] vs. normalized response, variable slope) and represent the mean±SD. SHP2 protein levels in regular MOLM-13 cells (WT), MOLM-13-Cas9-mCherry cells (Cas9), and MOLM-13-Cas9-mCherry cells with SHP2 KO (SHP2 KO) were evaluated by immunoblot analysis using SHP2 antibodies.
(§5) Viability of AML, esophageal carcinoma, and TF-1 cells was assessed using the ATP-depletion assay CellTiter-Glo® (Promega). Cells were harvested at 1×10^6/mL to 2×10^6 cells/mL with cell numbers determined by trypan blue using the Countess Cell counter (Thermo Scientific) and resuspended in culture media. […] Luminescence was read on a Tecan Spark® Multimode Microplate Reader and data analyzed using Graph Pad Prism software.
(In ATP-based viability assays light output follows the ATP content of the culture.)

For assay [6], the system named is KYSE-520 esophageal cancer cells. The assay can be described thus: Cell viability assay (CellTiter-Glo), KYSE-520. The format is cell-based. The settings on record: KYSE-520 cells, various concentrations, 3 d.
Text: as §4, §5

The mark [7] stands for this setting: DiFMUP at Km (20 μM), 10-point dose-response, read-out: SHP2-E76K IC50.
Where [8] appears, read: DiFMUP at Km (20 μM), read-out: SHP2cat IC50.

pIC50: −log10 of the molar value. Read-outs that look alike come from different tables or passages of the source.

Chain of SHP2 catalytic domain (SHP2cat; residues 248-527) (Q06124 248-527): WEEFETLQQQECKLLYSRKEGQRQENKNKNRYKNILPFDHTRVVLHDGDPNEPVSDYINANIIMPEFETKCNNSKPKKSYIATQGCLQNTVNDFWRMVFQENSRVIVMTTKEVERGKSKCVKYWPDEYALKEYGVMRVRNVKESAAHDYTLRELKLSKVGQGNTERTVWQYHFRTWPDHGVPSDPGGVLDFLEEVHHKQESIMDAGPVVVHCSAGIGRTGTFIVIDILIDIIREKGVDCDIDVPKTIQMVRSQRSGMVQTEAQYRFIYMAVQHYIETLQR
Chain of full-length SHP2-E76K oncogenic mutant (Q06124 whole entry E76K, the tested form may be a part): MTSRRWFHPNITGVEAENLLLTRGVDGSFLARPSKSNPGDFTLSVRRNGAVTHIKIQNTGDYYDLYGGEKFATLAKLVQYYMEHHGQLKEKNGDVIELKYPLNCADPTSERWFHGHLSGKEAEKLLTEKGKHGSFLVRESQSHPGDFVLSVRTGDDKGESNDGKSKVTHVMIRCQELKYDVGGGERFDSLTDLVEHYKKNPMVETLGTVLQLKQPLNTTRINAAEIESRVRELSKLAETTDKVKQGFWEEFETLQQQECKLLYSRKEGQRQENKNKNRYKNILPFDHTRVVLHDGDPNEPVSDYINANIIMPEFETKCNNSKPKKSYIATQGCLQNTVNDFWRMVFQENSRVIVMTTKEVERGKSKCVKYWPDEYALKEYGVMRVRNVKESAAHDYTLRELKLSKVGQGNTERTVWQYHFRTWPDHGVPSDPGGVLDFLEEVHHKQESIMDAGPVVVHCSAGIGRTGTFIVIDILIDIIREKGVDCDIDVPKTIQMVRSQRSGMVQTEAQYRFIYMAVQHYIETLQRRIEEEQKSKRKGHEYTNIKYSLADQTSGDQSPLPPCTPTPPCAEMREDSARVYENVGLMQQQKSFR
Chain of PTP1B catalytic domain (P18031 1-300): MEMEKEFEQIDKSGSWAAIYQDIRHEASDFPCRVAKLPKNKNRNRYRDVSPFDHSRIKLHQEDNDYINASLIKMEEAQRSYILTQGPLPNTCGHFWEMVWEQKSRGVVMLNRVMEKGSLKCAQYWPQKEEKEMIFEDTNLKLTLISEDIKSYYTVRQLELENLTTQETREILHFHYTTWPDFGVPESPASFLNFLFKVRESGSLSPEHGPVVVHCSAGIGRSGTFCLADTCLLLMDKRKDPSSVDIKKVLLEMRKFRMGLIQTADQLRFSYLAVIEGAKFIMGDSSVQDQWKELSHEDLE
Chain of striatal-enriched tyrosine phosphatase (STEP) catalytic domain (P54829 280-565 limits assumed): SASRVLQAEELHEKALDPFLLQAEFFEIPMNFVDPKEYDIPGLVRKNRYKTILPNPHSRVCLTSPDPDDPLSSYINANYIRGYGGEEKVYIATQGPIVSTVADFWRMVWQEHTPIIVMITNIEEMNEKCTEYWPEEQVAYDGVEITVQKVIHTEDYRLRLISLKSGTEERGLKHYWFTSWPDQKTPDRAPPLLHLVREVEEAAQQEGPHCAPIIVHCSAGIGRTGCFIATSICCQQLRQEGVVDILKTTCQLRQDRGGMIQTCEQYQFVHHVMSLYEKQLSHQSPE

The pIC50 is the negative decadic logarithm of the IC50, by convention in mol/L. For `O=C1CCC/C1=C\c1ccc(-c2ccc(O)c(C(=O)Nc3ccccc3)c2)o1` [#03, 2-Hydroxy-5-(5-((2-oxocyclopentylidene)methyl)furan-2-yl)-N-phenylbenzamide], the negative logarithm of the IC50 (pIC50) was 4.70 to 6.00 in assay [1] (setting [7]); 4.70 to 6.00 in assay [2]; 4.70 to 6.00 in assay [3] (setting [8]); 5.96 in assay [3] (catalytic domain, DiFMUP at Km, read-out: SHP2 IC50); 5.72 against PTP1B catalytic domain; 4.57 in assay [4].
For `O=C1/C(=C/c2ccc(-c3ccc(O)c(C(=O)N4CCCCC4)c3)o2)Sc2ccccc21` [#12, (Z)-2-((5-(4-Hydroxy-3-(piperidine-1-carbonyl)phenyl)furan-2-yl)methylene)benzo[b]thiophen-3(2H)-one], the negative-log IC50 (pIC50) in assay [1] (setting [7]) is 4.70 to 6.00; in assay [2] it was 4.00 to 4.70; in assay [3] (setting [8]), 4.70 to 6.00.
With `CC(C)NC(=O)c1cccc(-c2ccc(/C=C3\Sc4ccccc4C3=O)o2)c1` [#20, (Z)—N-Isopropyl-3-(5-((3-oxobenzo[b]thiophen-2(3H)-ylidene)methyl)furan-2-yl)benzamide], the pIC50 in assay [1] (setting [7]) is at most 4.00; in assay [1] (inactive analog used as negative control, SHP2 construct not specified, read-out: SHP2 IC50) it was below 4.00; in assay [2] it was at most 4.00. The “effect on cancer cell growth” value in assay [5] and in assay [6] was “no notable effects” each time.
With `O=C1/C(=C/c2ccc(-c3ccc(O)c(C(=O)O)c3)o2)CCC/C1=C\c1ccc(-c2ccc(O)c(C(=O)O)c2)o1` [#40], the pIC50 in assay [1] (setting [7]), in assay [2] and in assay [3] (setting [8]) was at least 6.00 each time.
Take `O=C(/C=C/c1ccc(-c2cccc(C(=O)O)c2)o1)/C=C/c1ccc(-c2cccc(C(=O)O)c2)o1` [#41]: the pIC50 in assay [1] (setting [7]), in assay [2] and in assay [3] (setting [8]) was at least 6.00 throughout.
In the case of `O=C1/C(=C/c2ccc(-c3cccc(C(=O)O)c3)o2)CC/C1=C\c1ccc(-c2cccc(C(=O)O)c2)o1` [#42], the pIC50 in assay [1] (setting [7]), in assay [2] and in assay [3] (setting [8]) was at least 6.00 throughout.
Turning to `O=C(/C=C/c1ccc(-c2ccc(O)c(C(=O)O)c2)o1)c1cccc(C(=O)/C=C/c2ccc(-c3ccc(O)c(C(=O)O)c3)o2)c1` [#43], the pIC50 was at least 6.00 in assay [1] (setting [7]), 4.70 to 6.00 in assay [2] and at least 6.00 in assay [3] (setting [8]).
As to `O=C(O)c1cccc(-c2ccc(/C=C/C(=O)c3cccc(C(=O)/C=C/c4ccc(-c5cccc(C(=O)O)c5)o4)c3)o2)c1` [#45], the negative logarithm of the IC50 (pIC50) in assay [1] (setting [7]), in assay [2] and in assay [3] (setting [8]) was 4.70 to 6.00 throughout.
As to `N#Cc1cccc(-c2ccc(/C=C/C(=O)/C=C/c3ccc(-c4cccc(C#N)c4)o3)o2)c1` [#46], the pIC50 in assay [1] (setting [7]), in assay [2] and in assay [3] (setting [8]) was 4.70 to 6.00 in each case.
